Assay results: patent publication US20250136578A1 (Kolm Therapeutics Inc., priority 2023, published 2025)

Tests used:
VCaP cells = assay: VCaP growth inhibition assay (CTG); format: cell-based; conditions: Homo sapiens, 216 h, 30 pM R1881, 9 days
How it was run: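 VCaP cells in phenol red-free DMEM with 5% charcoal-stripped serum were stimulated with 30 pM R1881 (final) and treated with compound from 100 nM to 10 fM final (1:5 dilutions) for 9 days at 37 °C. Viability was read by CellTiter-Glo luminescence, and IC50 came from 4-parameter logistic fits.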

AR / CBP ternary complex = AR / CBP ternary complex (Homo sapiens, UniProt P10275+Q92793); assay: Ternary complex formation assay (sandwich ELISA, AR capture, CBP antibody detection) in VCaP cell lysates; format: cell-based; conditions: treated 1.5 hours, rabbit CBP or p300 antibody detection, average, read-out: Average Ternary Complex
Sequence of AR / CBP ternary complex (P10275 whole entry): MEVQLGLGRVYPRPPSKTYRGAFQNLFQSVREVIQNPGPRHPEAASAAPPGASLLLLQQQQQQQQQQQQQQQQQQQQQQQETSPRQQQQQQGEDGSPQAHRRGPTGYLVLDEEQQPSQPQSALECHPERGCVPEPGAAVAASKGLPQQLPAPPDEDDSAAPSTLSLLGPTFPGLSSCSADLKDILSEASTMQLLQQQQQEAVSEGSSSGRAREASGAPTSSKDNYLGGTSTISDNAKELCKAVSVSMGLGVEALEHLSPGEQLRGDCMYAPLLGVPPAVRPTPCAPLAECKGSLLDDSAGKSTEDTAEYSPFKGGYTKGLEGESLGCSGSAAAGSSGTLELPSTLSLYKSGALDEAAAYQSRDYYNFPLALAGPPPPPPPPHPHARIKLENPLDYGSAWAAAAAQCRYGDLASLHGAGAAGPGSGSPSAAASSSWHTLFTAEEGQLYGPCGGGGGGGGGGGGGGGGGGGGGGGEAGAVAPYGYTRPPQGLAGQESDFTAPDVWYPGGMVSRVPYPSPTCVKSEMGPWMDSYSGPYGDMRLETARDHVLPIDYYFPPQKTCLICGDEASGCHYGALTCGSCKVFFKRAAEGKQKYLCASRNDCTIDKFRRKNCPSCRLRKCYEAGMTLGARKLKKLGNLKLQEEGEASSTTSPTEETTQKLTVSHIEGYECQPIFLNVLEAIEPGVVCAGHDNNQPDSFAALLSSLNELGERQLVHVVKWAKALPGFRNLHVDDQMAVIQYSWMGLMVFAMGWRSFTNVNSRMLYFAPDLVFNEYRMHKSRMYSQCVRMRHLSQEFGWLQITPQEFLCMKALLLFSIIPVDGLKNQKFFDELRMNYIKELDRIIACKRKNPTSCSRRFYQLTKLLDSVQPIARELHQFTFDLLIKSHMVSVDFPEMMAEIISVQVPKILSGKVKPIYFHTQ
Sequence of AR / CBP ternary complex (Q92793 2-2442): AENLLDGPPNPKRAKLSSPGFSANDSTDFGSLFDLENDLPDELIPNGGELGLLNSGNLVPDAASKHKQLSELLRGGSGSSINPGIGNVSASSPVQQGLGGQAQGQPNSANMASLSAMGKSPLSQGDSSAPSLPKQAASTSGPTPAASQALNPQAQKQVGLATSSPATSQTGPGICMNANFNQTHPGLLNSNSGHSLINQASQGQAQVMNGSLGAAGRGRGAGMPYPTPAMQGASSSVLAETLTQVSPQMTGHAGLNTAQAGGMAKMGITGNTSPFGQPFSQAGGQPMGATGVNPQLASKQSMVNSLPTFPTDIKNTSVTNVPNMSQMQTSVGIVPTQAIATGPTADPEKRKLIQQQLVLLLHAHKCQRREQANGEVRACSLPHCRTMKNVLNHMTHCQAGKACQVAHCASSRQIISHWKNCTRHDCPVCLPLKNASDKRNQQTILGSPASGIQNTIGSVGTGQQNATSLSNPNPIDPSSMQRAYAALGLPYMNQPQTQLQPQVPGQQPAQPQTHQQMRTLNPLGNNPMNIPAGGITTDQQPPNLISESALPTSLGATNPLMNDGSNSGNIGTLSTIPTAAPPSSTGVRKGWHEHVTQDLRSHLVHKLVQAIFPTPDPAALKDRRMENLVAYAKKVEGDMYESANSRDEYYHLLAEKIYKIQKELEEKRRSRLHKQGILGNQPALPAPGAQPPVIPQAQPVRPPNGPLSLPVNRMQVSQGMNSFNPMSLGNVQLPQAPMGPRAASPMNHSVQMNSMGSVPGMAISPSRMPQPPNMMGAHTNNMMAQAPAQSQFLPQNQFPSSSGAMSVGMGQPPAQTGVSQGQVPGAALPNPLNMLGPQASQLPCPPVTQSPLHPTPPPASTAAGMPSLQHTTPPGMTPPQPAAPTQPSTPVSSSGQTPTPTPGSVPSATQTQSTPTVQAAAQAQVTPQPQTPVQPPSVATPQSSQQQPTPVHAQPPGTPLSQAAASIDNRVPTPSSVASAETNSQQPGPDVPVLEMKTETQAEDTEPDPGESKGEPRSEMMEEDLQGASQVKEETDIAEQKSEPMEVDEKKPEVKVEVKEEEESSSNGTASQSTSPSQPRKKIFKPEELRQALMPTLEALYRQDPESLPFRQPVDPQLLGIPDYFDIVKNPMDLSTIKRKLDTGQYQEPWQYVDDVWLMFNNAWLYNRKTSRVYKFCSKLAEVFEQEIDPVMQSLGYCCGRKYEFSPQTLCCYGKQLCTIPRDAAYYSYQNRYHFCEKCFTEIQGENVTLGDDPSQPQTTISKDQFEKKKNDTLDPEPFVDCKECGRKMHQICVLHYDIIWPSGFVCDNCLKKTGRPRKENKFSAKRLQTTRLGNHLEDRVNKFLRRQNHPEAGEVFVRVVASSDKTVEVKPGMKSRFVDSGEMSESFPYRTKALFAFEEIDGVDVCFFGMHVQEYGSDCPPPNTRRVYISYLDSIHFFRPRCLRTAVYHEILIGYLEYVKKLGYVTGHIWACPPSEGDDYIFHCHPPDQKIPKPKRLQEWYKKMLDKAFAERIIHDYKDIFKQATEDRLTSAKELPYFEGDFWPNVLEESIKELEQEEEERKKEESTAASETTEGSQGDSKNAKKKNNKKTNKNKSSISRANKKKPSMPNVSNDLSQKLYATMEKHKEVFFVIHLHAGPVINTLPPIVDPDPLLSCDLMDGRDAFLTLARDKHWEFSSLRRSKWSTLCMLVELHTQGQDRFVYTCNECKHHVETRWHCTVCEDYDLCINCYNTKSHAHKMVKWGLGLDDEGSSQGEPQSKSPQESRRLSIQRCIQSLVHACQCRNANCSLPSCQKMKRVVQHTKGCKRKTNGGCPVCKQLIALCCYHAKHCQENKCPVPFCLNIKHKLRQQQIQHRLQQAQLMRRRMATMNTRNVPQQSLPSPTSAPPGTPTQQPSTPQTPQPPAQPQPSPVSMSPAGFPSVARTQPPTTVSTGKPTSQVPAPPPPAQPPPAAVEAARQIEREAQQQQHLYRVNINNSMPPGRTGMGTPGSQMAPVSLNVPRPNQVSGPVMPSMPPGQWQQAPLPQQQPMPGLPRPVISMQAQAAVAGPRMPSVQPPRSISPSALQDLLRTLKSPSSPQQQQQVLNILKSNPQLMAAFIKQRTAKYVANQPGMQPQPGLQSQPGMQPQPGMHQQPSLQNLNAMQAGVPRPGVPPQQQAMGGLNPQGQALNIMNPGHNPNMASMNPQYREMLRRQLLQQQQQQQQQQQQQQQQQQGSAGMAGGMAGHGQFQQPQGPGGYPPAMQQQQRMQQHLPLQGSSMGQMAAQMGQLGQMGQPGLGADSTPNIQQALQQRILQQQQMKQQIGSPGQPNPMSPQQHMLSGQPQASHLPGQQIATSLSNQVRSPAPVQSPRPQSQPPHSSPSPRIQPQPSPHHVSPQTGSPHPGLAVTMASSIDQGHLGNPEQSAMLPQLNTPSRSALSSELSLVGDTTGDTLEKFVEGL
How it was run: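 VCaP cells in 5% charcoal-stripped FBS were cultured ≥3 days and then given bifunctional compound for 1.5 h. Lysates went onto AR-antibody-coated plates. Bound CBP (or p300) was detected with a rabbit antibody plus HRP anti-rabbit, using QuantaRed chemifluorescence (ex 570/em 585) read immediately, at 5 min and at 15 min.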

IC50 (VCaP cells)	EC50 (AR / CBP ternary complex)	Compound
≤ 0.1 nM	< 1 nM	COc1cc(O[C@H]2CC[C@H](NC(=O)c3ccc(N4CCC(CN5CCC(n6nc(-c7cccc8cc(-c9cnn(C)c9)ncc78)c7c6CCN(C(C)=O)C7)CC5)CC4)cc3)CC2)ccc1C#N [Compound 163, 4-[4-[[4-[5-acetyl-3-[3-(1-methylpyrazol-4-yl)-8-isoquinolyl]-6,7-dihydro-4H-pyrazolo[4,3-c]pyridin-1-yl]-1-piperidyl]methyl]-1-piperidyl]-N-[4-(4-cyano-3-methoxy-phenoxy)cyclohexyl]benzamide]
0.1 to 1 nM	< 1 nM	CC(=O)N1CCc2c(c(-c3cccc4cc(-c5ccc(CCC6CCN(c7ccc(C(=O)N[C@H]8CC[C@H](Oc9ccc(C#N)c(Cl)c9)CC8)cn7)CC6)nc5)ncc34)nn2C2CCOCC2)C1 [Compound 165]
≤ 0.1 nM	10 to 100 nM	CC(=O)N1CCc2c(c(N3CCCc4cc(-c5ccc(CCC6CCN(c7ccc(C(=O)N[C@H]8CC[C@H](Oc9ccc(C#N)c(Cl)c9)CC8)cn7)CC6)cc5)c(C(F)F)cc43)nn2C2CCOCC2)C1 [Compound 168, 6-[4-[2-[4-[1-(5-acetyl-1-tetrahydropyran-4-yl-6,7-dihydro-4H-pyrazolo[4,3-c]pyridin-3-yl)-7-(difluoromethyl)-3,4-dihydro-2H-quinolin-6-yl]phenyl]ethyl]-1-piperidyl]-N-[4-(3-chloro-4-cyano-phenoxy)cyclohexyl]pyridine-3-carboxamide]
0.1 to 1 nM	< 1 nM	CC(=O)N1CCc2c(c(-c3cccc4cc(C5CC5)ncc34)nn2C2CCN(C(=O)C3CCN(c4ccc(C(=O)N[C@H]5CC[C@H](Oc6ccc(C#N)c(Cl)c6)CC5)nn4)CC3)CC2)C1 [Compound 170, 6-[4-[4-[5-acetyl-3-(3-cyclopropyl-8-isoquinolyl)-6,7-dihydro-4H-pyrazolo[4,3-c]pyridin-1-yl]piperidine1-carbonyl]-1-piperidyl]-N-[4-(3-chloro-4-cyano-phenoxy)cyclohexyl]pyridazine-3-carboxamide]
0.1 to 1 nM	< 1 nM	CC(=O)N1CCc2c(c(N3CCCc4cc(-c5cnn(C)c5)c(C(F)F)cc43)nn2C2CCN(C3CC4(CCN(c5ccc(C(=O)N[C@H]6CC[C@H](Oc7ccc(C#N)c(Cl)c7)CC6)nn5)CC4)C3)CC2)C1 [Compound 176, 6-[2-[4-[5-acetyl-3-[7-(difluoromethyl)-6-(1-methylpyrazol-4-yl)-3,4-dihydro-2H-quinolin-1-yl]-6,7-dihydro-4H-pyrazolo[4,3-c]pyridin-1-yl]-1-piperidyl]-7-azaspiro[3.5]nonan-7-yl]-N-[4-(3-chloro-4-cyano-phenoxy)cyclohexyl]pyridazine-3-carboxamide]
≤ 0.1 nM	< 1 nM	CC(=O)N1CCc2c(c(-c3cccc4cc(-c5ccc(N6CC(C7CCN(c8ccc(C(=O)N[C@H]9CC[C@H](Oc%10ccc(C#N)c(Cl)c%10)CC9)nn8)CC7)C6)nc5)ncc34)nn2C2CCOCC2)C1 [Compound 181]
0.1 to 1 nM	< 1 nM	CC(=O)N1CCc2c(c(N3CCCc4cc(-c5cnn(C)c5)c(C(F)F)cc43)nn2C2CC3(C2)CC2(CCN(c4ccc(C(=O)N[C@H]5CC[C@H](Oc6ccc(C#N)c(Cl)c6)CC5)nn4)CC2)C3)C1 [Compound 191, 6-[2-[5-acetyl-3-[7-(difluoromethyl)-6-(1-methylpyrazol-4-yl)-3,4-dihydro-2H-quinolin-1-yl]-6,7-dihydro-4H-pyrazolo[4,3-c]pyridin-1-yl]-9-azadispiro[3.1.56.14]dodecan-9-yl]-N-[4-(3-chloro-4-cyano-phenoxy)cyclohexyl] pyridazine-3-carboxamide]
≤ 0.1 nM	< 1 nM	CC(=O)N1CCc2c(c(N3CCCc4cc(-c5cnn(C)c5)c(C(F)F)cc43)nn2[C@H]2CC[C@@H](N3CCC4(CC3)CN(c3ccc(C(=O)N[C@H]5CC[C@H](Oc6ccc(C#N)c(Cl)c6)CC5)nn3)C4)CC2)C1 [Compound 192, 6-[7-[4-[5-acetyl-3-[7-(difluoromethyl)-6-(1-methylpyrazol-4-yl)-3,4-dihydro-2H-quinolin-1-yl]-6,7-dihydro-4H-pyrazolo[4,3-c]pyridin-1-yl]cyclohexyl]-2,7-diazaspiro[3.5]nonan-2-yl]-N-[4-(3-chloro-4-cyano-phenoxy)cyclohexyl]pyridazine-3-carboxamide]
≤ 0.1 nM	< 1 nM	CC(=O)N1CCc2c(c(N3CCCc4cc(-c5cnn(C)c5)c(C(F)F)cc43)nn2C2CCN(C3CC(C#Cc4ccc(C(=O)N[C@H]5CC[C@H](Oc6ccc(C#N)c(Cl)c6)CC5)nn4)C3)CC2)C1 (stereo partly drawn) [Compound 195, 6-[2-[3-[4-[5-acetyl-3-[7-(difluoromethyl)-6-(1-methylpyrazol-4-yl)-3,4-dihydro-2H-quinolin-1-yl]-6,7-dihydro-4H-pyrazolo[4,3-c]pyridin-1-yl]-1-piperidyl]cyclobutyl]ethynyl]-N-[4-(3-chloro-4-cyano-phenoxy)cyclohexyl]pyridazine-3-carboxamide]

Second part, the molecule before the results:

Compound	IC50 (VCaP cells)	EC50 (AR / CBP ternary complex)
CC(=O)N1CCc2c(c(-c3cccc4cc(-c5cnn(C)c5)ncc34)nn2C2CCN(CC3CCN(c4ccc(C(=O)N[C@H]5CC[C@H](Oc6ccc(C#N)c(Cl)c6)CC5)cn4)CC3)CC2)C1 [Compound 161, 6-[4-[[4-[5-acetyl-3-[3-(1-methylpyrazol-4-yl)-8-isoquinolyl]-6,7-dihydro-4H-pyrazolo[4,3-c]pyridin-1-yl]-1-piperidyl]methyl]-1-piperidyl]-N-[4-(3-chloro-4-cyano-phenoxy)cyclohexyl]pyridine-3-carboxamide]	≤ 0.1 nM	< 1 nM
CC(=O)N1CCc2c(c(-c3cccc4cc(-c5cnn(C)c5)ncc34)nn2C2CCN(CC3CCN(c4ccc(C(=O)N[C@H]5CC[C@H](Oc6ccc(C#N)c(Cl)c6)CC5)cc4)CC3)CC2)C1 [Compound 162, 4-[4-[[4-[5-acetyl-3-[3-(1-methylpyrazol-4-yl)-8-isoquinolyl]-6,7-dihydro-4H-pyrazolo[4,3-c]pyridin-1-yl]-1-piperidyl]methyl]-1-piperidyl]-N-[4-(3-chloro-4-cyano-phenoxy)cyclohexyl]benzamide]	0.1 to 1 nM	1 to 10 nM
CC(=O)N1CCc2c(c(-c3cccc4cc(-c5cnn(C)c5)ncc34)nn2C2CCN(C(=O)C3CCN(c4ccc(C(=O)N[C@H]5CC[C@H](Oc6ccc(C#N)c(Cl)c6)CC5)cc4)CC3)CC2)C1 [Compound 164, 4-[4-[4-[5-acetyl-3-[3-(1-methylpyrazol-4-yl)-8-isoquinolyl]-6,7-dihydro-4H-pyrazolo[4,3-c]pyridin-1-yl]piperidine-1-carbonyl]-1-piperidyl]-N-[4-(3-chloro-4-cyano-phenoxy)cyclohexyl]benzamide]	0.1 to 1 nM	< 1 nM
CC(=O)N1CCc2c(c(-c3cccc4cc(-c5ccc(CCC6CCN(c7ccc(C(=O)N[C@H]8CC[C@H](Oc9ccc(C#N)c(Cl)c9)CC8)cn7)CC6)cc5)ncc34)nn2C2CCOCC2)C1 [Compound 166, 6-[4-[2-[4-[8-(5-acetyl-1-tetrahydropyran-4-yl-6,7-dihydro-4H-pyrazolo[4,3-c]pyridin-3-yl)-3-isoquinolyl]phenyl]ethyl]-1-piperidyl]-N-[4-(3-chloro-4-cyano-phenoxy)cyclohexyl]pyridine-3-carboxamide]	0.1 to 1 nM	< 1 nM
CC(=O)N1CCc2c(c(N3CCCc4cc(-c5cnn(C)c5)c(C(F)F)cc43)nn2C2CCN(CC3CC4CC3CN4c3ccc(C(=O)N[C@H]4CC[C@H](Oc5ccc(C#N)c(Cl)c5)CC4)nn3)CC2)C1 (stereo partly drawn) [Compound 169, 6-[5-[[4-[5-acetyl-3-[7-(difluoromethyl)-6-(1-methylpyrazol-4-yl)-3,4-dihydro-2H-quinolin-1-yl]-6,7-dihydro-4H-pyrazolo[4,3-c]pyridin-1-yl]-1-piperidyl]methyl]-2-azabicyclo [2.2.1]heptan-2-yl]-N-[4-(3-chloro-4-cyano-phenoxy)cyclohexyl]pyridazine-3-carboxamide]	≤ 0.1 nM	< 1 nM
CC(=O)N1CCc2c(c(-c3cccc4cc(-c5cnn(C6CCC7(CC6)CCN(c6ccc(C(=O)N[C@H]8CC[C@H](Oc9ccc(C#N)c(Cl)c9)CC8)nn6)CC7)c5)ncc34)nn2C2CCOCC2)C1 [Compound 182]	≤ 0.1 nM	< 1 nM
CC(=O)N1CCc2c(c(-c3cccc4cc(-c5cnn(C6CCN(C7CCN(c8ccc(C(=O)N[C@H]9CC[C@H](Oc%10ccc(C#N)c(Cl)c%10)CC9)nn8)CC7)CC6)c5)ncc34)nn2C2CCOCC2)C1 [Compound 183]	0.1 to 1 nM	< 1 nM
CC(=O)N1CCc2c(c(-c3cccc4cc(-c5cnn([C@H]6CC[C@H](C7CCN(c8ccc(C(=O)N[C@H]9CC[C@H](Oc%10ccc(C#N)c(Cl)c%10)CC9)nn8)CC7)CC6)c5)ncc34)nn2C2CCOCC2)C1 [Compound 184]	1 to 100 nM	1 to 10 nM
CC(=O)N1CCc2c(c(N3CCCc4cc(-c5cnn(C)c5)c(C(F)F)cc43)nn2C2CCN(C3CCC(C#Cc4ccc(C(=O)N[C@H]5CC[C@H](Oc6ccc(C#N)c(Cl)c6)CC5)nn4)CC3)CC2)C1 (stereo partly drawn) [Compound 194, 6-[2-[4-[4-[5-acetyl-3-[7-(difluoromethyl)-6-(1-methylpyrazol-4-yl)-3,4-dihydro-2H-quinolin-1-yl]-6,7-dihydro-4H-pyrazolo[4,3-c]pyridin-1-yl]-1-piperidyl]cyclohexyl]ethynyl]-N-[4-(3-chloro-4-cyano-phenoxy)cyclohexyl]pyridazine-3-carboxamide]	≤ 0.1 nM	< 1 nM
